# Assay results as given in patent US12667581B2, “Therapeutics for treatment of COVID-19 symptoms” (The Texas A&M University System, priority 2020, dated 2026).
# Key:
# Format in all cases: in vivo, C57BL/6 mice
# [1] = system: Mouse Model of CALD (ORN06 oropharyngeal aspiration); assay: Total cells in BALF, ORN06 mouse model of CALD; conditions: i.p. at 24 and 48 hours after ORN06 insult (DANA 10 mg/kg, AMPCA 0.1 mg/kg); BALF at day 3; FIG. 1
# [2] = system: Mouse Model of CALD (ORN06 oropharyngeal aspiration); assay: BALF cell types by Wright-Giemsa staining, ORN06 mouse model of CALD; conditions: for ORN06-induced increase in the number of monocyte/macrophages in the BALF / counts of specific cell types in the BALF, treated groups versus Control group: i.p. at 24 and 48 hours after ORN06 (DANA 10 mg/kg, AMPCA 0.1 mg/kg); for ORN06-induced increase in the number of monocyte/macrophages in the BALF: day 3, FIG. 2A; for counts of specific cell types in the BALF, treated groups versus Control group: day 3, FIG. 2A-C
# Procedure: (§1) To determine if DANA or AMPCA affect CALD symptoms in mice, 5 week old 20 g male and female C57BL/6 mice (#000664; Jackson Laboratories, Bar Harbor, ME) were given an oropharyngeal aspiration of 1 mg/kg (20 μg/mouse) ORN06/LyoVec (LyoVec protects the ssRNA from degradation and facilitates cellular uptake) (InvivoGen, San Diego, CA) in 50 μl phosphate-buffered saline (PBS) to induce symptoms of pulmonary inflammation, or an oropharyngeal aspiration of an equal volume of PBS as a control, following Current protocols in mouse biology 2, 167-175 (2012). At 24 and 48 hours after ORN06 insult, some of ORN06-treated mice were given intraperitoneal injections of 100 μl PBS, or 10 mg/kg of DANA (N-Acetyl-2,3-dehydro-2-deoxyneuraminic acid; #252926-10MG, EMD, Millipore, Burlington, MA) or 0.1 mg/kg of 2-piperidinecarboxylic acid, 4-amino-1-methyl (AMPCA, #A00285-13785-026, Sundia, Shanghai, China) in 100 μl PBS. The DANA was dissolved in water to 2.5 mg/ml, and then diluted in PBS The AMPCA was dissolved directly in PBS. At day 3, mice were euthanized by CO2 inhalation, and BALF was obtained as previously described in Current protocols in mouse biology 2, 167-175 (2012); Proceedings of the National Academy of Sciences of the United States of America 112, 8385-8390 (2015); Public Library of Science ONE 9, e93730 (2014); and Nature Scientific Reports 8; 7 (1):15069 (2017). The experiment was performed in accordance with the recommendations in the Guide for the Care and use of Laboratory Animals of the National Institutes of Health. The Texas A&M University Animal Use and Care Committee approved the protocol.
# Total cells in the BALF were then quantified. The BALF cells were processed to prepare cell spots as described previously in Public Library of Science ONE 9, e93730 (2014), Nature Scientific Reports 8; 7 (1):15069 (2017); American Journal of Physiology Lung Cellular and Molecular Physiology, 1; 318 (1):L165-L179 (2020). After air drying for 48 hours at room temperature, some of the prepared BALF cell spots were fixed and treated with Wright-Giemsa stain (#08711, Polysciences, Inc., Warrington, PA) following the manufacturer's instructions. One hundred and fifty cells per mouse were examined and quantified for cell type following the manufacturer's instructions. Imaging of BALF cell spots stained with Wright-Giemsa stain was done with a Nikon Eclipse Ti2 microscope.
# [3] = system: Mouse Model of CALD (ORN06 oropharyngeal aspiration); assay: BALF cell types by immunochemistry on cell spots, ORN06 mouse model of CALD; conditions: i.p. at 24 and 48 hours after ORN06 (DANA 10 mg/kg, AMPCA 0.1 mg/kg), day 3, FIG. 3
# Procedure: as §1
# Immunochemistry on BALF cell spots and counts of cells was performed as described previously in Public Library of Science ONE 9, e93730 (2014); Proceedings of the National Academy of Sciences of the United States of America 112, 8385-8390 (2015); Nature Scientific Reports 8; 7 (1):15069 (2017); American Journal of Physiology Lung Cellular and Molecular Physiology, 1; 318 (1)1,165-L179 (2020) using anti-CD3 (100202, clone 17A2, BioLegend, San Diego, CA) to detect T-cells, anti-CD11b (101202, clone M1/70, BioLegend) to detect blood and inflammatory macrophages, anti-CD11c (M100-3, clone 223H7, MBL International, Woburn, MA) to detect alveolar macrophages and dendritic cells, anti-CD45 (103102, clone 30-F11, BioLegend) for total leukocytes, anti-Ly6G (127602, clone 1A8, BioLegend) to detect neutrophils, with isotype-matched irrelevant rat antibodies diluted to 5 μg/ml in PBS containing 2% (w:v) bovine serum albumin (PBS-BSA) (VWR, Radnor, PA). Cells were then incubated in coplin jars containing PBS, with 6 changes of buffer over 30 minutes. […] Using a 40× objective, at least 100 cells from each stained BALF spot were examined and the percent positive cells was recorded.
# [4] = system: Mouse Model of CALD (ORN06 oropharyngeal aspiration); assay: Clot-like aggregates in BALF cell spots, ORN06 mouse model of CALD; conditions: male mice; irregularly shaped 2-10 μm object staining dark blue with Wright-Giemsa; i.p. at 24 and 48 hours after ORN06 (DANA 10 mg/kg, AMPCA 0.1 mg/kg); day 3; FIG. 4
# [5] = system: Mouse Model of CALD (ORN06 oropharyngeal aspiration); assay: Alveolar wall thickness in H&E-stained lung cryosections, ORN06 mouse model of CALD; conditions: i.p. at 24 and 48 hours after ORN06 (DANA 10 mg/kg, AMPCA 0.1 mg/kg), day 3, FIGS. 5 and 6
# Procedure: (§2) To determine if DANA or AMPCA affect CALD symptoms in mice, 5 week old 20 g male and female C57BL/6 mice (#000664; Jackson Laboratories, Bar Harbor, ME) were given an oropharyngeal aspiration of 1 mg/kg (20 μg/mouse) ORN06/LyoVec (LyoVec protects the ssRNA from degradation and facilitates cellular uptake) (InvivoGen, San Diego, CA) in 50 μl phosphate-buffered saline (PBS) to induce symptoms of pulmonary inflammation, or an oropharyngeal aspiration of an equal volume of PBS as a control, following Current protocols in mouse biology 2, 167-175 (2012). At 24 and 48 hours after ORN06 insult, some of ORN06-treated mice were given intraperitoneal injections of 100 μl PBS, or 10 mg/kg of DANA (N-Acetyl-2,3-dehydro-2-deoxyneuraminic acid; #252926-10MG, EMD, Millipore, Burlington, MA) or 0.1 mg/kg of 2-piperidinecarboxylic acid, 4-amino-1-methyl (AMPCA, #A00285-13785-026, Sundia, Shanghai, China) in 100 μl PBS. […]
# (§3) After collecting BALF, the lungs from the mice were harvested and inflated with Surgipath frozen section compound (#3801480, Leica, Buffalo Grove, IL) and preserved at −80° C. […] Image quantification was done using Image J (NIH, Bethesda, MD). […] Using ‘ Straight’ command, the length of the alveolar wall on the image was measured and was recorded with the ‘Measure’ command. 8 measurements of the alveolar wall thickness were recorded for each image. […]
# [6] = system: Mouse Model of CALD (ORN06 oropharyngeal aspiration); assay: Percent of exudate-containing alveoli in lung cryosections, ORN06 mouse model of CALD; conditions: male mice, i.p. at 24 and 48 hours after ORN06 (DANA 10 mg/kg, AMPCA 0.1 mg/kg), day 3, FIG. 7
# Procedure: as §2, §3
# [7] = system: Mouse Model of CALD (ORN06 oropharyngeal aspiration); assay: Percentage of alveolar airspace area occupied by exudate, ORN06 mouse model of CALD; conditions: lung cryosections; i.p. at 24 and 48 hours after ORN06 (DANA 10 mg/kg, AMPCA 0.1 mg/kg); day 3; FIG. 8
# Procedure: To determine if DANA or AMPCA affect CALD symptoms in mice, 5 week old 20 g male and female C57BL/6 mice (#000664; Jackson Laboratories, Bar Harbor, ME) were given an oropharyngeal aspiration of 1 mg/kg (20 μg/mouse) ORN06/LyoVec (LyoVec protects the ssRNA from degradation and facilitates cellular uptake) (InvivoGen, San Diego, CA) in 50 μl phosphate-buffered saline (PBS) to induce symptoms of pulmonary inflammation, or an oropharyngeal aspiration of an equal volume of PBS as a control, following Current protocols in mouse biology 2, 167-175 (2012). […]
# as §3
# Using the Threshold function and the Measure Tool in NIH ImageJ, the percent area of each 20× objective image of lung cryosections described above containing tissue (not counting pale pink exudates) was measured, and this percentage was subtracted from 100% to obtain the percent area of the image occupied by the alveolar airspace. […]
# [8] = system: Mouse Model of COVID-19-Like Cytokine Storm (ORN06); assay: Serum cytokine levels (LEGENDplex Mouse Inflammation Panel), ORN06 mouse model; conditions: AMPCA 0.1 mg/kg i.p. at 24 and 48 hours after ORN06, serum at day 3
# Procedure: as §1
# Serum samples collected at day 3 post control or ORN06 insult were processed following the manufacturer's protocol. (#740150, LEGENDplex Mouse Inflammation Panel (13-plex), Biolegend, San Diego, CA) for simultaneous quantification of mouse cytokines using an Accuri C6 (BD Bioscience, Franklin Lakes, NJ) flow cytometer.
smiles,measurement,setting,value
"CC(=O)N[C@H]1[C@H]([C@H](O)[C@H](O)CO)OC(C(=O)O)=C[C@@H]1O [DANA, 2-deoxy-2,3-didehydro-N-acetylneuraminic acid]",ORN06-induced increase in the number of cells in the BALF,[1],ameliorated the ORN06-induced increase in the number of cells in the BALF
same,"number of cells in the BALF, treated groups versus Control group",[1],no significant difference
same,ORN06-induced increase in the number of monocyte/macrophages in the BALF,[2],decreased the ORN06-induced increase in the number of monocyte/macrophages
same,"counts of specific cell types in the BALF, treated groups versus Control group",[2],no significant difference
same,ORN06-induced increase in the number of CD11c positive macrophages and/or dendritic cells in the BALF,[3],decreased the ORN06-induced increase in the number of CD11c positive macrophages and/or dendritic cells
same,ORN06-induced increase in the number of CD45-positive leukocytes in the BALF,[3],decreased the ORN06-induced increase
same,clot-like aggregates in the BAL cell spots,[4],no clot-like aggregates were observed in the BAL cell spots from 2 of the 3
same,ORN06-induced alveolar wall thickness increase,[5],significantly reduced
same,percentage of exudate-containing alveoli,[6],decreased the percentage of exudate-containing alveoli
same,percentage of the alveolar airspace area occupied by exudate,[7],decreased the percentage of the alveolar airspace area occupied by exudate
"CN1CCC(N)CC1C(=O)O (centres unmarked) [AMPCA, 4-amino-1-methyl-2-piperidine carboxylic acid]",ORN06-induced increase in the number of cells in the BALF,[1],ameliorated the ORN06-induced increase in the number of cells in the BALF
same,"number of cells in the BALF, treated groups versus Control group",[1],no significant difference
same,ORN06-induced increase in the number of lymphocytes in the BALF,"[2]; AMPCA 0.1 mg/kg i.p. at 24 and 48 hours after ORN06, day 3, FIG. 2B",decreased the ORN06-induced increase in the number of monocyte/macrophages and lymphocytes
same,ORN06-induced increase in the number of monocyte/macrophages in the BALF,[2],decreased the ORN06-induced increase in the number of monocyte/macrophages
same,"counts of specific cell types in the BALF, treated groups versus Control group",[2],no significant difference
same,ORN06-induced increase in the number of CD11c positive macrophages and/or dendritic cells in the BALF,[3],decreased the ORN06-induced increase in the number of CD11c positive macrophages and/or dendritic cells
same,ORN06-induced increase in the number of CD45-positive leukocytes in the BALF,[3],decreased the ORN06-induced increase
same,clot-like aggregates in the BAL cell spots,[4],No clot-like aggregates were observed
same,ORN06-induced alveolar wall thickness increase,[5],significantly reduced
same,percentage of exudate-containing alveoli,[6],decreased the percentage of exudate-containing alveoli
same,percentage of the alveolar airspace area occupied by exudate,[7],decreased the percentage of the alveolar airspace area occupied by exudate
same,serum levels of IL-1β,[8]; FIG. 9A,decreased the serum levels of both cytokines
same,serum levels of IL-6,[8]; FIG. 9B,decreased the serum levels of both cytokines
same,serum levels of IL-12p70,[8]; FIG. 9C,decreased the serum levels of IL-12p70
same,serum levels of IL-23,[8]; FIG. 9D,decreased the serum levels
same,serum levels of IL-27,[8]; FIG. 9E,decreased the serum levels
